# From patent US6495525B1, “VLA-4 inhibitor: oMePUPA-V” (Biogen, Inc., priority 1998, dated 2002)
# Columns and labels:
# α4β7 = target: T1, α4β7 (Homo sapiens, UniProt P13612+P26010); experiment: VCAM-Ig Direct Binding Assay on JY cells (α4β7)
# T1 construct: endogenous in cells; host or cells: JY cells
# T1 sequence (P13612 34-1032): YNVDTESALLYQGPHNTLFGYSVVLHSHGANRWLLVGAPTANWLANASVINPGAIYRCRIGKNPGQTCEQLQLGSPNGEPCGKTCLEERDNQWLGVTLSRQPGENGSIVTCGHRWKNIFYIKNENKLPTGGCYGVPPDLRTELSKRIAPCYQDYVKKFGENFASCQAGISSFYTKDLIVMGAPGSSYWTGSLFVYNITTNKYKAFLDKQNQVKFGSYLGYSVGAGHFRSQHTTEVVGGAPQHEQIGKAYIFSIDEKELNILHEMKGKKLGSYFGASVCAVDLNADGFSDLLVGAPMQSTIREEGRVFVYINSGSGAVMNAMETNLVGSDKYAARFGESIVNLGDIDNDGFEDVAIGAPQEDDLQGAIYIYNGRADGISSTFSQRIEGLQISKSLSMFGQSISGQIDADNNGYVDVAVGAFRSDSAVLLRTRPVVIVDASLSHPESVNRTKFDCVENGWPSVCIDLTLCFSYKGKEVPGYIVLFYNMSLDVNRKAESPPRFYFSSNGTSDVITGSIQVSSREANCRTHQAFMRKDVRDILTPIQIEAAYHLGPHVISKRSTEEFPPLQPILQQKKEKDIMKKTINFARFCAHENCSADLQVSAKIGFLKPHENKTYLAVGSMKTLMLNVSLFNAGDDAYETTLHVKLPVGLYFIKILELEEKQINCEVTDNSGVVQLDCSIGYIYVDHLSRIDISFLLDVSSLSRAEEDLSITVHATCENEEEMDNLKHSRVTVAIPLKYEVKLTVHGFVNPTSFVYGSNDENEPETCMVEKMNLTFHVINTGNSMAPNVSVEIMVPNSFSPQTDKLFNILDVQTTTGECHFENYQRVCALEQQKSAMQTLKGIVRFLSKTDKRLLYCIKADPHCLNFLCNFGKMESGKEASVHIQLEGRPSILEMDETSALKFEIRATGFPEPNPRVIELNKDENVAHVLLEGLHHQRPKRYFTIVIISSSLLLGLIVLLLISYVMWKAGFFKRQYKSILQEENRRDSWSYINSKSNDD
# T1 sequence (P26010 20-798): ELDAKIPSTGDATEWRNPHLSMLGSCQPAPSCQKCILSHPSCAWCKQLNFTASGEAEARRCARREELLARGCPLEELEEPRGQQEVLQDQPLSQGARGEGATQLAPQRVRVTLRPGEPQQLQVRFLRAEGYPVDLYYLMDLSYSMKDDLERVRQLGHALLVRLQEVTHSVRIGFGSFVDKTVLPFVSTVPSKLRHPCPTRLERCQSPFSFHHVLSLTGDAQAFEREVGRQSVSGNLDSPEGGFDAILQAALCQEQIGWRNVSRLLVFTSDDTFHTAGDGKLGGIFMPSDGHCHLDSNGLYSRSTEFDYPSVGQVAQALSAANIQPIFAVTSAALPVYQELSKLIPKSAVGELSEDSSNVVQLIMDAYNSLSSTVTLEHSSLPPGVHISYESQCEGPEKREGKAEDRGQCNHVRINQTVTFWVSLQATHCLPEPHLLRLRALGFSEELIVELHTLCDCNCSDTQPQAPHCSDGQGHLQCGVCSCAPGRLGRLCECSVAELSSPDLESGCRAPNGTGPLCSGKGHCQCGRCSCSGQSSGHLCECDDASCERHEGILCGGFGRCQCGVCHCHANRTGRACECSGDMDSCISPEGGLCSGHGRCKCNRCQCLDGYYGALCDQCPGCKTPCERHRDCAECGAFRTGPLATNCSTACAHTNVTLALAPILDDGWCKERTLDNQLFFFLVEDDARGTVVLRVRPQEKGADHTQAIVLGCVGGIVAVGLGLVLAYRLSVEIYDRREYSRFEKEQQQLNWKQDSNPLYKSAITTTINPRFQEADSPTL
# Description: In order to assess the VLA-4 inhibitory specificity of the compounds of this invention, assays for other major groups of integrins, i.e., β2and β3, as well as other β1 integrins, such as VLA-5, VLA-6 and α4β7 are performed. These assays may be similar to the adhesion inhibition and direct binding assays described above, substituting the appropriate integrin-expressing cell and corresponding ligand. For example, polymorphonuclear cells (PMNs) express β2 integrins on their surface and bind to ICAM. β3 integrins are involved in platelet aggregation and inhibition may be measured in a standard platelet aggregation assay. VLA-5 binds specifically to Arg-Gly-Asp sequences, while VLA-6 binds to laminin. α4β7 is a recently discovered homologue of VLA-4, which also binds fibronectin and VCAM. Specificity with respect to α4β7 is determined in a binding assay that utilizes the above-described VCAM-IgG-enzyme marker conjugate and a cell line that expresses α4β7, but not VLA-4, such as RPMI-8866 or JY cells.
# Binding to α4β7 was assessed on JY cells in the presence of Mn^+2. In the binding assay, VCAM-Ig and oMePUPA-V compete for binding to α4β7 on JY cells (See section 4.1.1 for assay protocol). In the cell adhesion assay, oMePUPA-V was tested for its ability to block JY (α4β7) cell binding to CS1/BSA conjugate
# [1] = Bulk / drug substance stability (HPLC); format: physicochemical
# Description: At four weeks, one or two degradation peaks became detectable at 40° C. and 50° C., but the level of each impurity peak was still less than 0.02%.
# [2] = tested on: panel of radioligand, enzyme, and functional assays; experiment: Panlabs ProfilingScreen, DiscoveryScreen, Immunoscreen and Cerep membrane receptor panel
# Description: oMePUPA-V was tested in the Panlabs ProfilingScreen, DiscoveryScreen, and Immunoscreen panel of radioligand, enzyme, and functional assays and in the Cerep membrane receptor panel.
smiles,measurement,setting,value
Cc1ccccc1NC(=O)Nc1ccc(CC(=O)N2CCC[C@H]2C(=O)N[C@H](C)CC(=O)O)cc1 [oMePUPA-V],measurable activity against α4β7,α4β7,> 100 µM
same,inhibition at 100 µM,"α4β7; @ 100 μM, Mn+2, read-out: inhibition, JY (α4β7) VCAM-Ig DBA",3%
same,blocking of α4β7 binding to VCAM-Ig (in words),"α4β7; JY cells, Mn+2",does not block
same,IC50,α4β7; read-out: IC50 against α4β7-VCAM-Ig binding,> 100 µM
same,"Bulk stability (40° C., 75% RH), time stable",[1],stable >4 wk
same,In vitro pharma screen 85 tests,[2],clean
same,activity in Panlabs and Cerep panels,[2]; at 10 μM,No significant activity
